Twelve compounds from patent US20260183275A1, “SUBSTITUTED QUINOLONE COMPOUNDS USEFUL AS INHIBITORS OF TLR9” (Bristol-Myers Squibb Company, priority 2022, published 2026) can be followed below.

Bounds are passed on as bounds.

Holding throughout (type): cell-based
The target of one test is T1, human TLR7 (Homo sapiens, UniProt Q9NYK1).
T1 construct: host or cells: HEK-Blue cells
T1 sequence (Q9NYK1 27-1049): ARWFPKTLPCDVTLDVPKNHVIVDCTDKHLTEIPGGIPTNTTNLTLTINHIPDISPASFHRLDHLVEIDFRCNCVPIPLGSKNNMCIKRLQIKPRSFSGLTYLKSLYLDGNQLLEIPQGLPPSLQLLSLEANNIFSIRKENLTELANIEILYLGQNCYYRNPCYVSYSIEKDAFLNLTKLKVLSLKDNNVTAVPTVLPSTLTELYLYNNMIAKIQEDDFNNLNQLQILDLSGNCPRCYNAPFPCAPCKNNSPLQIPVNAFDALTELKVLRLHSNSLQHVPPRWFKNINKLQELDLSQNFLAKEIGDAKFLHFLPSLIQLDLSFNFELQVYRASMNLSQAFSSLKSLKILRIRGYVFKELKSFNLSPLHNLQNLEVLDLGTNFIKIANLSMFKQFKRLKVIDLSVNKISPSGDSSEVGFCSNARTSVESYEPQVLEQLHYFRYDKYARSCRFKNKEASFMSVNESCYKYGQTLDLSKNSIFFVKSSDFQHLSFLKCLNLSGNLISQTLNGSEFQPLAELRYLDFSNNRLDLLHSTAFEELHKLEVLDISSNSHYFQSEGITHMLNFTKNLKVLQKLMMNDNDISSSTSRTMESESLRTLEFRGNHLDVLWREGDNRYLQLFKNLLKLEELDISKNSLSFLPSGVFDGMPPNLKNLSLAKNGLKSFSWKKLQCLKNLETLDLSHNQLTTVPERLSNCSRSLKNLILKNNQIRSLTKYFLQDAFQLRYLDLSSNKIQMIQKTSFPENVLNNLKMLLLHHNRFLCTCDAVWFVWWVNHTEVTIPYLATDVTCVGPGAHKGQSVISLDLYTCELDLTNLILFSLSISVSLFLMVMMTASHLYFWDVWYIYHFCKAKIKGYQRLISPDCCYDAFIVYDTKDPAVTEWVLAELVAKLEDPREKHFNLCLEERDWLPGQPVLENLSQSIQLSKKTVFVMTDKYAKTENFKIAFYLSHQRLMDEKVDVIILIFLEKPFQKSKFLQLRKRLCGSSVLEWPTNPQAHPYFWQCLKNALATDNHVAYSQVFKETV
Description: TLR7 inhibition reporter assay (HEK-Blue cells, SEAP reporter). The note with it: HEK-Blue cells overexpressing human TLR7; stimulated with gardiquimod 7.5 μM; SEAP read after 22 hour; dose range 0.05 nM-50 μM. Summed up:
(§1)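 HEK-Blue cells with NF-κB/AP-1-driven SEAP pre-treated 30 min with compounds (0.05 nM-50 μM), then stimulated with gardiquimod 7.5 μM (TLR7), R848 15.9 μM (TLR8) or ODN2006 5 nM (TLR9). SEAP read after 22 h at 37° C; % inhibition relative to agonist+DMSO and reference-inhibitor wells.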

The next test concerns the target T2, human TLR8 (Homo sapiens, UniProt Q9NR97).
T2 construct: host or cells: HEK-Blue cells
T2 sequence (Q9NR97 27-1041): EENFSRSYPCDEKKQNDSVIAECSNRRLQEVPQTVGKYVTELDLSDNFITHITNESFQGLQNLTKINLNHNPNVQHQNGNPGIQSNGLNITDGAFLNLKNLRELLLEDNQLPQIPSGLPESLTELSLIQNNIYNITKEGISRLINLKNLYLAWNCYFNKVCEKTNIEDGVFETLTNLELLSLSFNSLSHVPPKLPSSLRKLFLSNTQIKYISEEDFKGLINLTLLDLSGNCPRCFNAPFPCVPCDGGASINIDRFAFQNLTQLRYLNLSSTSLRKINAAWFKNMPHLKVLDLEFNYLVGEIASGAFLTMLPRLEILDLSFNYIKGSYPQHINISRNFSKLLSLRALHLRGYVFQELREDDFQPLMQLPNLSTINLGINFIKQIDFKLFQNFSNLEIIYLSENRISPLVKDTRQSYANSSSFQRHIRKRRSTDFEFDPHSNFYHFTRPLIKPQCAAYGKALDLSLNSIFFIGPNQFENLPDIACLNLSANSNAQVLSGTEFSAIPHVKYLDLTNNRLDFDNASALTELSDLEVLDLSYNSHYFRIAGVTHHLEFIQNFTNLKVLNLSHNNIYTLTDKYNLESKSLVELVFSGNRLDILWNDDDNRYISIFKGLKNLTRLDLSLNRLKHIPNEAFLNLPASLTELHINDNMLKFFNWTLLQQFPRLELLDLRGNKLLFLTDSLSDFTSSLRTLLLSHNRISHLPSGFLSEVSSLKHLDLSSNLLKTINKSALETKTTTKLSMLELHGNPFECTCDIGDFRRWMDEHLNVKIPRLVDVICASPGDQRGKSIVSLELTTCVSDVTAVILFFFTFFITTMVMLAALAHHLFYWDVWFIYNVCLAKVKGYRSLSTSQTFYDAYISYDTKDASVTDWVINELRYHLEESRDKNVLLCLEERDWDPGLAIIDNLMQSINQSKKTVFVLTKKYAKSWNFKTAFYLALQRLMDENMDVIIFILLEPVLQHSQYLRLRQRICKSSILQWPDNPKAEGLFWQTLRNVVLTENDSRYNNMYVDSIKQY
Description: TLR8 inhibition reporter assay (HEK-Blue cells, SEAP reporter). The note with it: HEK-Blue cells overexpressing human TLR8; stimulated with R848 15.9 μM; SEAP read after 22 hour; dose range 0.05 nM-50 μM. Summed up:
as §1
(Reporter assays use an easily measured gene product as a stand-in for the process of interest.)

The target in a further test is T3, human TLR9 (Homo sapiens, UniProt Q9NR96).
T3 construct: host or cells: HEK-Blue cells
T3 sequence (Q9NR96 26-1032): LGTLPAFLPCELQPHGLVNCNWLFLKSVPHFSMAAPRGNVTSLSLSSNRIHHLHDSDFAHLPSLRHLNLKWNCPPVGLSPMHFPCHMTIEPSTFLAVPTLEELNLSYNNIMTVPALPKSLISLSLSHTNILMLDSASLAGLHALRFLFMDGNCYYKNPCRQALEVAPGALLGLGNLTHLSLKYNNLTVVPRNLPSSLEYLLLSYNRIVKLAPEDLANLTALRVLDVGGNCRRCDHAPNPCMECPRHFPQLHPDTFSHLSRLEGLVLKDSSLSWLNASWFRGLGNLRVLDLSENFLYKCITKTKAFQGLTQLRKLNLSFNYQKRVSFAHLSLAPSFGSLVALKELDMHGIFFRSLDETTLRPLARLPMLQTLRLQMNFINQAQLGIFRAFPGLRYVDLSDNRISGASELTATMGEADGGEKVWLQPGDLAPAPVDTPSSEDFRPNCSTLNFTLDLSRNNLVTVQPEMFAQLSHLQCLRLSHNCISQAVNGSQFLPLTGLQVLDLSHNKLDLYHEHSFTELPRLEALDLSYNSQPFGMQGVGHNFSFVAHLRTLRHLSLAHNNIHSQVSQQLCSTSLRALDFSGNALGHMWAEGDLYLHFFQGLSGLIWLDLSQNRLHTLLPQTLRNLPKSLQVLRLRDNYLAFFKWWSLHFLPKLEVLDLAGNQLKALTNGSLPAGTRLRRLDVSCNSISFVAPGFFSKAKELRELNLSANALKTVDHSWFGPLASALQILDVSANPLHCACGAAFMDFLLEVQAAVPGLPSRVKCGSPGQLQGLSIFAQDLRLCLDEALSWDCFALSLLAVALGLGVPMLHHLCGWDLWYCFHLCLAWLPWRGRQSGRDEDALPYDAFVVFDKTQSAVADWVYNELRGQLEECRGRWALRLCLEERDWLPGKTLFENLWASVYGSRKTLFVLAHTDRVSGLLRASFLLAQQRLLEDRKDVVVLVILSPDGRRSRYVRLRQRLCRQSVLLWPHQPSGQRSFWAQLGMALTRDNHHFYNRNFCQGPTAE
Description: TLR9 inhibition reporter assay (HEK-Blue cells, SEAP reporter). As to conditions: HEK-Blue cells overexpressing human TLR9; stimulated with ODN2006 5 nM; SEAP read after 22 hour; dose range 0.05 nM-50 μM. The procedure, abridged:
as §1

For the compound `CC(C)N1CCC(c2ccc(-c3ccc4c(c3)cc(-c3ccc(S(C)(=O)=O)cc3)c(=O)n4CC(C)(C)O)cc2)CC1` [Example 89, 1-(2-hydroxy-2-methylpropyl)-3-(4-methanesulfonylphenyl)-6-{4-[1-(propan-2-yl)piperidin-4-yl]phenyl}-1,2-dihydroquinolin-2-one], the IC50 – broadly, the concentration at which inhibition is half-maximal – on human TLR7 is 4960 nM; on human TLR8 it was 10900 nM; on human TLR9 it was 465 nM.

Regarding `CC(C)N1CCN(c2ccc(Nc3ccc4[nH]c(=O)c(-c5ccc(S(C)(=O)=O)cc5)cc4c3)cc2)CC1` [Example 90, 3-(4-methanesulfonylphenyl)-6-({4-[4-(propan-2-yl)piperazin-1-yl]phenyl}amino)-1,2-dihydroquinolin-2-one], the IC50 at human TLR7 was 3090 nM; against human TLR8, at least 50000 nM; at human TLR9 it was 493 nM.

As to `O=c1[nH]c2ccc(-c3ccc(C4CCN(C5COC5)CC4)cc3)cc2cc1-c1ccc(OC(F)F)cc1` [Example 91, 3-[4-(difluoromethoxy)phenyl]-6-{4-[1-(oxetan-3-yl)piperidin-4-yl]phenyl}-1,2-dihydroquinolin-2-one], the IC50 at human TLR7 was at least 50000 nM; against human TLR8 it was at least 50000 nM; on human TLR9 it was 512 nM.

With `NS(=O)(=O)c1ccc(-c2cc3cc(-c4ccc(C5CCN(C6COC6)CC5)cc4)ccc3[nH]c2=O)cc1` [Example 92, 4-(6-{4-[1-(oxetan-3-yl)piperidin-4-yl]phenyl}-2-oxo-1,2-dihydroquinolin-3-yl)benzene-1-sulfonamide], the figures for the IC50 against human TLR7, against human TLR8 and on human TLR9 were at least 50000 nM, 11400 nM and 560 nM, respectively.

As for `CC(C)N1CCC(c2ccc(-c3ccc4[nH]c(=O)c(-c5ccc6nccnc6c5)cc4c3)cc2)CC1` [Example 93, 6-{4-[1-(propan-2-yl)piperidin-4-yl]phenyl}-3-(quinoxalin-6yl)-1,2-dihydroquinolin-2-one], the figures for the IC50 against human TLR7, against human TLR8 and against human TLR9 were 1870 nM, 49800 nM and 651 nM, respectively.

As to `O=c1[nH]c2ccc(-c3ccc(C4CCN(C5COC5)CC4)cc3)cc2cc1-c1ccc2nccnc2c1` [Example 94, 6-{4-[1-(oxetan-3-yl)piperidin-4-yl]phenyl}-3-(quinoxalin-6-yl)-1,2-dihydroquinolin-2-one], the figures for the IC50 against human TLR7, on human TLR8 and against human TLR9 were at least 50000 nM, at least 50000 nM and 689 nM, respectively.

In the case of `CCc1c(-c2ccc(OC)c(OC)c2)c(=O)[nH]c2ccc(-c3ccc(N4CCN(C(C)C)CC4)cc3)cc12` [Example 95, 3-(3,4-dimethoxyphenyl)-4-ethyl-6-{4-[4-(propan-2-yl)piperazin-1-yl]phenyl}-1,2-dihydroquinolin-2-one], the IC50 against human TLR7 stood at 5890 nM; on human TLR8, 731 nM; against human TLR9 it was 691 nM.

Regarding `CC(C)N1CCC(c2ccc(-c3ccc4c(c3)cc(-c3ccc(N(C)C)cc3)c(=O)n4C)cc2)CC1` [Example 96, 3-[4-(dimethylamino)phenyl]-1-methyl-6-{4-[1-(propan-2-yl)piperidin-4-yl]phenyl}-1,2-dihydroquinolin-2-one], the IC50 against human TLR7 is 17300 nM; against human TLR8, at least 50000 nM; at human TLR9 it was 1430 nM.

`CN1CCC(c2ccc3[nH]c(=O)c(-c4ccc(S(C)(=O)=O)cc4)cc3c2)CC1` [Example 97, 3-(4-methanesulfonylphenyl)-6-(1-methylpiperidin-4-yl)-1,2-dihydroquinolin-2-one]: the IC50 against human TLR7 is 2510 nM; against human TLR8, 20100 nM; against human TLR9, 960 nM.

On to `CS(=O)(=O)Nc1cccc(-c2cc3cc(-c4ccc(C5CCN(C6COC6)CC5)cc4)ccc3[nH]c2=O)c1` [Example 98, N-[3-(6-{4-[1-(oxetan-3-yl)piperidin-4-yl]phenyl}-2-oxo-1,2-dihydroquinolin-3-yl)phenyl]methanesulfonamide], for which the IC50 against human TLR7 was at least 50000 nM; against human TLR8, 26700 nM; against human TLR9, 1430 nM.

In the case of `N#Cc1cccc(-c2cc3cc(-c4ccc(C5CCN(C6COC6)CC5)cc4)ccc3[nH]c2=O)c1` [Example 99, 3-(6-{4-[1-(oxetan-3-yl)piperidin-4-yl]phenyl}-2-oxo-1,2-dihydroquinolin-3-yl) benzonitrile], the IC50 against human TLR7 is 16700 nM; on human TLR8, at least 50000 nM; against human TLR9 it was 1650 nM.

Take `Cn1c(=O)c(-c2ccccc2)cc2cc(-c3ccc(C4CCN(C5COC5)CC4)cc3)ccc21` [Example 100, 1-methyl-6-{4-[1-(oxetan-3-yl)piperidin-4-yl]phenyl}-3-phenyl-1,2-dihydroquinolin-2-one]: the IC50 against human TLR7 is at least 50000 nM; on human TLR8, 1900 nM; against human TLR9, 2270 nM.
